Data reported in patent US4879212A, “Peptide composition and method for the detection of antibodies to HTLV-III” (United Biomedical Inc., priority 1987, dated 1989).
Ends that are not written are not given here.

Key:
[1] = test system: anti HTLV-III antibodies; test: Immunoreactivity of peptides at 1 ug per well in ELISA with pooled AIDS serum, relative to 21mer peptide; format: binding, human; conditions: for Reactivity %: 1 ug per well, pooled AIDS serum sample, 21mer peptide set as 100%
Description: Various peptide analogs based on the above described amino acid sequence have been prepared. These analogs and their reactivities with the anti HTLV-III antibodies present in sera of AIDS and ARC patients are described in Example 8 and Table III. The reactivity in an ELISA test for the same amount of each peptide by weight per volume was compared with the reactivity of the 21mer peptide, which was assigned a reactivity of 100.
The 35mer peptide, 19mer peptide, 11mer peptide and eight analogues of the 21mer peptide, and overlapping 19mer peptide were prepared in their amide form according to the classical Merrifield method described herein above.
The immunoreactivity of the various peptides at 1 ug per well level was tested using a pooled AIDS serum sample. The reactivity of each peptide was compared with the reactivity of the 21mer peptide which was set as 100%.

[2] = test system: antibodies to HTLV-III; format: binding, human; conditions: screened out from over 500 HTLV III positive AIDS serum specimens
Description: Following the procedure described in Example 1, mixtures of the 21mer peptide with the 19mer peptide with various weight ratios, from 10:1.25 to 4:1, were used as the immunoadsorbent. The wells were coated with 1 ug of the mixture. The serum samples used were two samples from patients which had been diagnosed as positive for AIDS and two samples from patients with autoimmune diseases. The two AIDS positive samples were screened out from over 500 HTLV III positive AIDS serum specimens and had been showned to be negative in ELISA using only the 21mer peptide as the immunoadsorbent.

[3] = test system: antibodies to HTLV-III
Description: A third problem which has plagued this area is the possibility of false negative results.
where A492 (RC) is the absorbance reading for the reactive control and A492 (NRC) is the absorbance reading for the non-reactive control.

[4] = test system: antibodies to HTLV-III; conditions: cited from earlier work

| Substance | Reactivity % [1] [%] | immunoreactivity (in words) ([1]; observed from Table III) | ELISA result of the two AIDS positive samples [2] | serum samples positive by Western Blot Analysis giving negative results ([3]; 12 out of 449) | accuracy of the results ([3]; cutoff point=0.1xA492 (RC)+1xA492 (NRC)) | serum samples positive by Western Blot Analysis giving negative results, out of 449 ([3]; mostly at the later stage of AIDS) | immunoreactivity (in words) [4] |
| --- | --- | --- | --- | --- | --- | --- | --- |
| RILAVERYKLDQQLLGIWGCSGKLICTTAVPWNAS (cysteine pairing not given here) [Peptide 17] | 132.0 | highest immunoreactivity |  |  |  |  |  |
| Arg--Ile--Leu--Ala--Val--Glu--Arg--Tyr--Leu--Lys--Asp--Gln--Gln--Leu--Leu--Gly--Ile--Trp--Gly--Cys--Ser [Peptide 6] | 100 |  | negative | about 2.67% | about 98% | 12 |  |
| Arg-Ile-Leu-Ala-Val-Glu-Arg-Tyr-Leu-Lys-Asp-Gln-Gln-Leu--Leu-Gly-Ile-Trp-Gly-Cys-Ser-Gly-Lys-Leu-Ile-Cys-X |  |  |  |  |  |  | not as good as the deactivated virus |
